# Measured values taken from patent US20260200926A1, “TREM2 MODULATORS” (Muna Therapeutics ApS, priority 2022, published 2026).
# Read-outs that look alike come from different tables or passages of the source.
# Molecular target: T1, Human TREM2 (Homo sapiens, UniProt Q9NZC2)
# T1 construct: expressed in transfected cells
# Experiment: Human TREM2 activity: cellular phosphorylation of Syk (AlphaLISA SureFire Ultra p-SYK) in HEK293/DAP12+TREM2 stable cell line
# Assay type: cell-based
# Conditions: for Emax: HEK293; for EC50: phospho-Syk AlphaLISA signal, HEK293/DAP12+TREM2 cells, concentration giving 50% of maximal response, read-out: EC50
# Method in brief: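 The read-out was p-Syk (Tyr525/526), measured by AlphaLISA in lysates of a stable HEK293/DAP12+TREM2 clone. Cells (10,000/well, plated the day before) received compound for 30 min at 37 °C. Dosing used 8 points in quadruplicate, top 100 μM with 1:6 dilution, 0.5% final DMSO.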
# [1] = maximal response relative to reference agonist example 1B (remaining examples), read-out: Emax
# T1 sequence (Q9NZC2 19-230): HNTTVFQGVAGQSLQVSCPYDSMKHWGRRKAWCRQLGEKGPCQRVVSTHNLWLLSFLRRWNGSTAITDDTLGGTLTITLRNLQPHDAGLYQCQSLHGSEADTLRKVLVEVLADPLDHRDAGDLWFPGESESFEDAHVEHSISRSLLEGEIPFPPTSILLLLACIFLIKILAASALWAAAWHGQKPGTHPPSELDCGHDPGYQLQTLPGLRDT
# T1 sequence (O43914 22-113 partner): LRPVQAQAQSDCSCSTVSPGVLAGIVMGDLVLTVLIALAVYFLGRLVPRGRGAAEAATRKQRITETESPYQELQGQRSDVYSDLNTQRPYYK
SMILES,Emax [1] [%],EC50 [µM],Emax [%]
"Cc1nc2c(-c3ccc(C(F)(F)F)cc3F)nc(N3C[C@H](c4cnn(C)c4)OC(C)(C)C3)cc2c(=O)n1C (single isomer, unassigned) [Example 134B]",< 75,0.1 to 1,–
"Cc1cc([C@H]2CN(c3cc4c(=O)n(C)c(C)nc4c(-c4ccc(Cl)cc4F)n3)CCO2)ccn1 (single isomer, unassigned) [Example 135B]",75 to 110,0.1 to 1,–
"Cc1cc([C@H]2CN(c3cc4c(=O)n(C)c(C)nc4c(-c4ccc(F)cc4F)n3)CCO2)ccn1 (single isomer, unassigned) [Example 136B]",< 75,0.1 to 1,–
"Cc1cc([C@H]2CN(c3cc4c(=O)n(C)c(C)nc4c(-c4ccc(C(F)(F)F)cc4F)n3)CCO2)ccn1 (single isomer, unassigned) [Example 137B]",75 to 110,0.1 to 1,–
"Cc1cc([C@H]2CN(c3cc4c(=O)n(C)c(C)nc4c(-c4ccc(C(F)(F)F)nc4)n3)CCO2)ccn1 (single isomer, unassigned) [Example 138B]",< 75,0.1 to 1,–
"Cc1nc2c(-c3cc(F)c(F)cc3F)nc([C@H]3CCO[C@@H](c4cnn(C5CC5)c4)C3)cc2c(=O)n1C (single isomer, unassigned) [Example 139B]",< 75,0.1 to 1,–
"Cc1nc2c(-c3ccc(Cl)cc3F)nc([C@@H]3CCO[C@H](c4cnn(C5CC5)c4)C3)cc2c(=O)n1C (single isomer, unassigned) [Example 140A]",–,0.1 to 1,< 75
"Cc1nc2c(-c3ccc(Cl)cc3F)nc([C@H]3CCO[C@@H](c4cnn(C5CC5)c4)C3)cc2c(=O)n1C (single isomer, unassigned) [Example 140B]",–,0.01 to 0.1,75 to 110
"Cc1nc2c(-c3ccc(Cl)cc3F)cc(N3C[C@@H](c4cnn(C)c4)OC(C)(C)C3)nc2c(=O)n1C (single isomer, unassigned) [Example 142A]",< 75,0.1 to 1,–
"Cc1nc2c(-c3ccc(C(F)(F)F)cc3F)nc(N3C[C@H](c4cnn(C)c4)OC4(CCC4)C3)cc2c(=O)n1C (single isomer, unassigned) [Example 143B]",< 75,0.1 to 1,–
"Cc1nc2c(-c3cc(F)c(F)cc3F)nc(N3C[C@H](c4cnn(C)c4)OC4(CC4)C3)cc2c(=O)n1C (single isomer, unassigned) [Example 146B]",< 75,> 1,–
"Cc1nc2c(-c3ccc(Cl)cc3F)nc(N3C[C@H](c4cnn(C)n4)OC(C)(C)C3)cc2c(=O)n1C (single isomer, unassigned) [Example 147B]",75 to 110,0.1 to 1,–
"Cc1nc2c(-c3ccc(Cl)cc3F)nc([C@@H]3C[C@@H]3c3cnn(C)c3)cc2c(=O)n1C (single isomer, unassigned) [Example 148A]",< 75,> 1,–
"Cc1nc2c(-c3ccc(Cl)cc3F)nc([C@@H]3C[C@H]3c3cnn(C)c3)cc2c(=O)n1C (single isomer, unassigned) [Example 148B]",< 75,> 1,–
"Cc1nc2c(-c3cc(F)c(F)cc3F)nc(N3C[C@H](c4cnn(C)c4)OC(C)(C)C3)cc2c(=O)n1C (single isomer, unassigned) [Example 150B]",< 75,> 1,–
"Cc1nc2c(-c3ccc(Cl)cc3F)nc(N3C[C@H](c4cnn(C)c4)OC4(CCC4)C3)cc2c(=O)n1C (single isomer, unassigned) [Example 151B]",< 75,0.1 to 1,–
"Cc1nc2c(-c3cc(F)c(F)cc3F)nc(N3C[C@@H](c4cnn(C)c4)OC4(CCC4)C3)cc2c(=O)n1C (single isomer, unassigned) [Example 152A]",75 to 110,0.1 to 1,–
"Cc1nc2c(-c3cc(F)c(F)cc3F)nc(N3C[C@H](c4cnn(C)c4)OC4(CCC4)C3)cc2c(=O)n1C (single isomer, unassigned) [Example 152B]",< 75,> 1,–
"Cc1nc2c(-c3ccc(C(F)(F)F)cc3F)nc([C@H]3CCO[C@@H](c4cnn(C5CC5)c4)C3)cc2c(=O)n1C (single isomer, unassigned) [Example 153B]",< 75,0.1 to 1,–
"Cc1cc([C@H]2CN(c3nc(-c4ccc(F)cc4F)c4nc(C(F)(F)F)n(C)c(=O)c4n3)CCO2)ccn1 (single isomer, unassigned) [Example 154B]",75 to 110,0.01 to 0.1,–
"Cc1cc([C@H]2CN(c3nc(-c4cc(F)c(F)cc4F)c4nc(C(F)(F)F)n(C)c(=O)c4n3)CCO2)ccn1 (single isomer, unassigned) [Example 155B]",75 to 110,0.01 to 0.1,–
"Cc1nc2c(-c3ccc(F)cc3F)nc(N3C[C@H](c4cnn(C)c4)OC(F)(F)C3)nc2c(=O)n1C (single isomer, unassigned) [Example 156B]",75 to 110,0.01 to 0.1,–

# More lines, main results first:
Emax [1] [%],EC50 [µM],SMILES,Emax [%]
75 to 110,0.001 to 0.01,"Cc1cc([C@@H]2CN(c3cc4c(=O)n(C)c(C)nc4c(-c4ccc(Cl)cc4F)n3)CCO2)ccn1 (single isomer, unassigned) [Example 135A]",–
75 to 110,0.001 to 0.01,"Cc1cc([C@@H]2CN(c3cc4c(=O)n(C)c(C)nc4c(-c4ccc(F)cc4F)n3)CCO2)ccn1 (single isomer, unassigned) [Example 136A]",–
75 to 110,0.001 to 0.01,"Cc1cc([C@@H]2CN(c3cc4c(=O)n(C)c(C)nc4c(-c4ccc(C(F)(F)F)cc4F)n3)CCO2)ccn1 (single isomer, unassigned) [Example 137A]",–
> 110,0.01 to 0.1,"Cc1cc([C@@H]2CN(c3cc4c(=O)n(C)c(C)nc4c(-c4ccc(C(F)(F)F)nc4)n3)CCO2)ccn1 (single isomer, unassigned) [Example 138A]",–
75 to 110,0.01 to 0.1,"Cc1nc2c(-c3cc(F)c(F)cc3F)nc([C@@H]3CCO[C@H](c4cnn(C5CC5)c4)C3)cc2c(=O)n1C (single isomer, unassigned) [Example 139A]",–
75 to 110,0.01 to 0.1,"Cc1cc([C@@H]2CN(c3cc4c(=O)n(C)c(C)nc4c(-c4cc(F)c(F)cc4F)n3)CCO2)ccn1 (single isomer, unassigned) [Example 141A]",–
75 to 110,0.01 to 0.1,"Cc1cc([C@H]2CN(c3cc4c(=O)n(C)c(C)nc4c(-c4cc(F)c(F)cc4F)n3)CCO2)ccn1 (single isomer, unassigned) [Example 141B]",–
75 to 110,0.01 to 0.1,"Cc1nc2c(-c3ccc(Cl)cc3F)cc(N3C[C@H](c4cnn(C)c4)OC(C)(C)C3)nc2c(=O)n1C (single isomer, unassigned) [Example 142B]",–
75 to 110,0.001 to 0.01,"Cc1nc2c(-c3ccc(C(F)(F)F)cc3F)nc(N3C[C@@H](c4cnn(C)c4)OC4(CCC4)C3)cc2c(=O)n1C (single isomer, unassigned) [Example 143A]",–
75 to 110,0.001 to 0.01,"Cc1nc2c(-c3ccc(Cl)cc3F)nc(N3C[C@@H](c4cnn(C)c4)OC4(CC4)C3)cc2c(=O)n1C (single isomer, unassigned) [Example 144A]",–
< 75,0.01 to 0.1,"Cc1nc2c(-c3ccc(Cl)cc3F)nc(N3C[C@H](c4cnn(C)c4)OC4(CC4)C3)cc2c(=O)n1C (single isomer, unassigned) [Example 144B]",–
75 to 110,0.001 to 0.01,"Cc1nc2c(-c3ccc(C(F)(F)F)cc3F)nc(N3C[C@@H](c4cnn(C)c4)OC4(CC4)C3)cc2c(=O)n1C (single isomer, unassigned) [Example 145A]",–
< 75,0.01 to 0.1,"Cc1nc2c(-c3ccc(C(F)(F)F)cc3F)nc(N3C[C@H](c4cnn(C)c4)OC4(CC4)C3)cc2c(=O)n1C (single isomer, unassigned) [Example 145B]",–
75 to 110,0.01 to 0.1,"Cc1nc2c(-c3cc(F)c(F)cc3F)nc(N3C[C@@H](c4cnn(C)c4)OC4(CC4)C3)cc2c(=O)n1C (single isomer, unassigned) [Example 146A]",–
< 75,0.01 to 0.1,"Cc1nc2c(-c3ccc(Cl)cc3F)nc(N3C[C@@H](c4cnn(C)n4)OC(C)(C)C3)cc2c(=O)n1C (single isomer, unassigned) [Example 147A]",–
75 to 110,< 0.001,"Cc1nc2c(-c3ccc(Cl)cc3F)nc(N3C[C@@H](c4cnn(C)c4)OC(F)(F)C3)nc2c(=O)n1C (single isomer, unassigned) [Example 149A]",–
< 75,0.01 to 0.1,"Cc1nc2c(-c3ccc(Cl)cc3F)nc(N3C[C@H](c4cnn(C)c4)OC(F)(F)C3)nc2c(=O)n1C (single isomer, unassigned) [Example 149B]",–
75 to 110,0.01 to 0.1,"Cc1nc2c(-c3cc(F)c(F)cc3F)nc(N3C[C@@H](c4cnn(C)c4)OC(C)(C)C3)cc2c(=O)n1C (single isomer, unassigned) [Example 150A]",–
75 to 110,0.001 to 0.01,"Cc1nc2c(-c3ccc(Cl)cc3F)nc(N3C[C@@H](c4cnn(C)c4)OC4(CCC4)C3)cc2c(=O)n1C (single isomer, unassigned) [Example 151A]",–
> 110,0.001 to 0.01,"Cc1nc2c(-c3ccc(C(F)(F)F)cc3F)nc([C@@H]3CCO[C@H](c4cnn(C5CC5)c4)C3)cc2c(=O)n1C (single isomer, unassigned) [Example 153A]",–
75 to 110,< 0.001,"Cc1cc([C@@H]2CN(c3nc(-c4ccc(F)cc4F)c4nc(C(F)(F)F)n(C)c(=O)c4n3)CCO2)ccn1 (single isomer, unassigned) [Example 154A]",–
75 to 110,< 0.001,"Cc1cc([C@@H]2CN(c3nc(-c4cc(F)c(F)cc4F)c4nc(C(F)(F)F)n(C)c(=O)c4n3)CCO2)ccn1 (single isomer, unassigned) [Example 155A]",–
75 to 110,0.001 to 0.01,"Cc1nc2c(-c3ccc(F)cc3F)nc(N3C[C@@H](c4cnn(C)c4)OC(F)(F)C3)nc2c(=O)n1C (single isomer, unassigned) [Example 156A]",–
